Measurements as given in article PMC11643554, “Synthesis, Cytotoxicity and Antiproliferative Effect of New Pyrrole Hydrazones” (Molecules, 2024).
Like-named read-outs stand apart in the source and are kept apart here.

How the values were obtained:
[1] = test system: mouse embryonic fibroblasts BALB 3T3 clone A31; test: BALB 3T3 Neutral Red Uptake safety test (cytotoxicity/phototoxicity); format: cell-based; conditions: PIF = CC50 −Irr/CC50 +Irr; PIF < 2 not phototoxic, 2 < PIF < 5 probable phototoxicity, PIF > 5 phototoxic
Protocol: (§1) The Neutral Red Uptake in vitro assay is a colorimetric method for assessing cell viability. This method is based on the ability of living cells to incorporate Neutral Red dye into lysosomes. Mouse embryonic fibroblasts were seeded at 1 × 10^4 cells/100 μL culture medium/well in 96-well cell culture microplates. The cells were incubated for 24 h to allow cell adhesion. The cells were then treated with a solution of the test substances in double-increasing concentrations (from 15 to 4000 μM). The phototoxicity test was performed in parallel on a second 96-well plate, which was irradiated with a solar simulator (LED lamp—Helios-iO (SERIC Ltd., Tokyo, Japan) for 10 min (irradiation dose 0.86 J). After 24 h of incubation, a culture medium containing Neutral Red was added. After 3 h of incubation, the wells were washed with PBS, and a Desorb solution (50% Ethanol, 1% Acetic acid, 49% dH2O) was added. The optical density (OD) was measured by a microplate reader at λ = 540 nm. The percentage of cytotoxicity was calculated according to the following formula:Cytotoxicity (%) = (1 − (OD540 (sample)/OD540 (negative control))) × 100 Phototoxicity is expressed by Photoirritation factor (PIF), PIF = CC50 − Irr/CC50 +Irr* * Irradiation

[2] = as above; format: cell-based, mouse; conditions: mouse, BALB 3T3 clone A31 embryonic fibroblasts, BALB 3T3, NRU, 24 h incubation, n = 6
Protocol: as §1

[3] = test system: human keratinocytes HaCaT; test: Antiproliferative activity, MTT dye reduction assay, HaCaT; format: cell-based; conditions: non-tumor keratinocytes HaCaT, 72 h, n = 6, read-out: Mean IC50 ± SD, HaCaT
Protocol: (§2) The antiproliferative activity of the studied substances was determined by MTT dye reduction assay. The assay is based on the metabolism of MTT by reductases in the mitochondria to formazan, the concentration of which can be determined photometrically. The measured absorbance is an indicator of cell viability and metabolic activity. Cells were seeded in 96-well cell culture plates (1 × 10^3 cells/well). Followed by incubation at 37 °C, 5% CO2 for 24 h. Followed by incubation for 72 h of the cells with the studied substances in twice increasing concentrations. After washing with PBS, 100 µL/well of MTT solution (0.5 mg/mL) was added. After 3 h of incubation, the 96-well plates were washed with PBS, and 100 µL/well of lysing solution (DMSO/Ethanol = 1/1) was added. Optical density was measured at a wavelength of 540 nm. The antiproliferative activity expressed in % of the negative control was calculated according to the following formula:Antiproliferative activity (%) = (1 − (OD540 (sample)/OD540 (negative control))) × 100
(§3) The IC50 values (a concentration that inhibited 50% cell proliferation) were calculated using non-linear regression analysis (GraphPad Prizm8 Software). The statistical analysis included the application of one-way ANOVA followed by Bonferroni’s post hoc test. p < 0.05 was accepted as the lowest level of statistical significance. All results are presented as mean ± SD.

SH-4 cells [4] = test: Cell cycle analysis, PI stain, flow cytometry; format: cell-based, human; conditions: SH-4, 48 h; for G2 phase, percentage of cells / S phase, percentage of cells / G0/G1 phase, percentage of cells: 1 6 µM, 1A 260 µM, 1B 260 µM, 1C 40 µM, 1D 8 µM, cisplatin 20 µM; for G2 phase, percentage of cells: control 12.1; for S phase, percentage of cells: control 21.6; for G0/G1 phase, percentage of cells: control 63.6; for effect on cell cycle distribution (in words): at IC50 doses
Protocol: After incubation, cells were washed twice with ice-cold PBS and fixed with ice-cold 70% ethanol at −20 °C overnight. The cells were treated with 20 µg/mL RNase A at 37 °C for 60 min, then washed with PBS and finally stained with 20 µg/mL PI in the dark for 30 min. The cellular DNA content for the cell cycle distribution analysis was performed with the system software (BD FACS DIVA software (BD Biosciences, Franklin Lakes, NJ, USA)), plotting at least 10,000 events per sample. Three independent experiments were performed, with two replicates per experiment.

SH-4 cells [5] = test: Annexin V-FITC/PI flow cytometry assay (apoptosis); format: cell-based, human; conditions: for Early apoptosis (Annexin V+/PI−, Q3) / Late apoptosis (Annexin V+/PI+, Q2) / Necrosis (Annexin V−/PI+, Q1) / Live (viable cells, Annexin V−/PI−, Q4): 1 6 µM, 1A 260 µM, 1B 260 µM, 1C 40 µM, 1D 8 µM, cisplatin 20 µM
Protocol: Apoptosis was discriminated with the annexin V-FITC/PI test according to the manufacturer’s protocol (SIGMA-ALDRICH APOAF). […] After completion of each drug incubation, cell media that may contain cells in suspension was centrifuged at 350× g for 5 min. Subsequently, the cell monolayers were washed once with PBS, and cells were detached with trypsin and then collected together with a centrifuged pellet. The cells were washed twice with cold PBS and then resuspended in a Binding Buffer (0.1 M Hepes/NaOH (pH 7.4), 1.4 M NaCl, 25 mM CaCl2) at a concentration of 1 × 10^5 cells/mL. The cells were incubated with 5 µL of FITC Annexin V and 10 µL PI for 20 min at RT (25 °C) in the dark. The analysis was performed with BD FACS DIVA software version 7.0 (BD Biosciences, Franklin Lakes, NJ, USA). Data were analyzed as follows: lower left quadrant, viable cells (Annexin V−/PI−); lower right quadrant, early apoptotic cells (Annexin V+/PI−); upper right quadrant, late apoptotic cells (annexin V+/PI+); upper left quadrant, necrotic cells (annexin V−/PI+). Three independent experiments were performed, with two replicates per experiment.

human melanoma SH-4 = test: Antiproliferative activity, MTT dye reduction assay, SH-4; format: cell-based; conditions: for IC50: melanoma SH-4, MTT, 72 h, n = 6, read-out: Mean IC50 ± SD, SH-4; for SI (Selective index): SI = IC50 (non-tumor cell line HaCaT)/IC50 (tumor cell line SH-4)
Protocol: as §2, §3

[6] = irradiated with solar simulator 10 min (0.86 J), read-out: Mean CC50 ± SD, +Irr
[7] = without irradiation, read-out: Mean CC50 ± SD, −Irr

CN(C)CCCN1c2ccccc2Sc2ccc(Cl)cc21 [Chlorpromazine, reference compound]
PIF (Photo Irritation Factor) [1]: 7.21 | CC50 at 24 h [2, 6]: 9.13 ± 0.72 µM | CC50 at 24 h [2, 7]: 65.8 ± 2.64 µM

N.N.[Cl][Pt][Cl] [Cisplatin, reference compound]
IC50 [3]: 8.64 ± 0.42 µM | G2 phase, percentage of cells (SH-4 cells [4]): 17.7% | S phase, percentage of cells (SH-4 cells [4]): 61.3% | G0/G1 phase, percentage of cells (SH-4 cells [4]): 17.8% | Early apoptosis (Annexin V+/PI−, Q3) (SH-4 cells [5]; SH-4, 48 h): 36.4% | Late apoptosis (Annexin V+/PI+, Q2) (SH-4 cells [5]; SH-4, 48 h): 2.59% | Necrosis (Annexin V−/PI+, Q1) (SH-4 cells [5]; SH-4, 48 h): 0.34% | IC50 (human melanoma SH-4): 22.8 ± 1.47 µM

CCOC(=O)c1cc(-c2ccc(Cl)cc2)n(C(Cc2ccccc2)C(=O)NN)c1C (stereo not shown) [Compound 1, Ethyl-5-(4-chlorophenyl)-1-(1-hydrazinyl-1-oxo-3-phenylpropan-2-yl)-2-methyl-1H-pyrrole-3-carboxylate]
IC50 ([3]; Homo sapiens): 9.64 ± 0.58 µM | G2 phase, percentage of cells (SH-4 cells [4]): 13.4% | S phase, percentage of cells (SH-4 cells [4]): 28.5% | G0/G1 phase, percentage of cells (SH-4 cells [4]): 57% | PIF (Photo Irritation Factor) [1]: 0.94 | CC50 at 24 h [2, 6]: 55.8 ± 4.49 µM | CC50 at 24 h [2, 7]: 52.3 ± 2.63 µM | viability at 6 µM (SH-4 cells [5]; Homo sapiens, SH-4, 48 h, read-out: Live (viable cells, Annexin V−/PI−, Q4)): 48.3% | Early apoptosis (Annexin V+/PI−, Q3) (SH-4 cells [5]; SH-4, 48 h): 42.7% | Late apoptosis (Annexin V+/PI+, Q2) (SH-4 cells [5]; SH-4, 48 h): 8.74% | Necrosis (Annexin V−/PI+, Q1) (SH-4 cells [5]; SH-4, 48 h): 0.19% | increase of total apoptotic cell populations compared to the control group (SH-4 cells [5]; SH-4, 48 h incubation, 6 µM): 50% | IC50 (human melanoma SH-4; Homo sapiens): 6.86 ± 0.6 µM | SI (Selective index) (human melanoma SH-4): 1.41 | melting point: 170 to 173 °C

CCOC(=O)c1cc(-c2ccc(Cl)cc2)n(C(Cc2ccccc2)C(=O)N/N=C/c2[nH]c(C(=O)OCC)c(C)c2C(=O)OCC)c1C (stereo not shown) [Compound 1A, Diethyl(E)-5-((2-(2-(5-(4-chlorophenyl)-3-(ethoxycarbonyl)-2-methyl-1H-pyrrol-1-yl)-3-phenylpropanoyl)hydrazineylidene)methyl)-3-methyl-1H-pyrrole-2,4-dicarboxylate]
IC50 ([3]; Homo sapiens): 503 ± 31.1 µM | effect on cell cycle distribution (in words) (SH-4 cells [4]): no significant changes in the cell cycle distribution | G2 phase, percentage of cells (SH-4 cells [4]): 14.8% | S phase, percentage of cells (SH-4 cells [4]): 24.5% | G0/G1 phase, percentage of cells (SH-4 cells [4]): 59.8% | PIF (Photo Irritation Factor) [1]: 1.11 | CC50 at 24 h [2, 6]: 2840 ± 124 µM | CC50 at 24 h [2, 7]: 3140 ± 167 µM | apoptotic activity (in words) (SH-4 cells [5]; SH-4, 48 h, 260 µM, versus Cisplatin 20 µM): comparable apoptotic activity with positive control | Early apoptosis (Annexin V+/PI−, Q3) (SH-4 cells [5]; SH-4, 48 h): 36.5% | Late apoptosis (Annexin V+/PI+, Q2) (SH-4 cells [5]; SH-4, 48 h): 4.78% | Live (viable cells, Annexin V−/PI−, Q4) (SH-4 cells [5]; SH-4, 48 h): 58.2% | Necrosis (Annexin V−/PI+, Q1) (SH-4 cells [5]; SH-4, 48 h): 0.50% | IC50 (human melanoma SH-4; Homo sapiens): 270 ± 13.5 µM | SI (Selective index) (human melanoma SH-4): 1.87 | melting point: 109 to 112 °C

CCOC(=O)c1cc(-c2ccc(Cl)cc2)n(C(Cc2ccccc2)C(=O)N/N=C/c2[nH]c(C)c(C(=O)OCC)c2C)c1C (stereo not shown) [Compound 1B, Ethyl(E)-5-(4-chlorophenyl)-1-(1-(2-((4-(ethoxycarbonyl)-3,5-dimethyl-1H-pyrrol-2-yl)methylene)hydrazineyl)-1-oxo-3-phenylpropan-2-yl)-2-methyl-1H-pyrrole-3-carboxylate]
IC50 ([3]; Homo sapiens): 544 ± 26.8 µM | effect on cell cycle distribution (in words) (SH-4 cells [4]): slight increase in the S phase population | G2 phase, percentage of cells (SH-4 cells [4]): 13.6% | S phase, percentage of cells (SH-4 cells [4]): 34% | G0/G1 phase, percentage of cells (SH-4 cells [4]): 50.2% | PIF (Photo Irritation Factor) [1]: 0.96 | CC50 at 24 h [2, 6]: 2270 ± 55.4 µM | CC50 at 24 h [2, 7]: 2180 ± 154 µM | apoptotic potential higher than α-aldehyde derivative 1A (SH-4 cells [5]; SH-4, 48 h, 260 µM): 14% | Early apoptosis (Annexin V+/PI−, Q3) (SH-4 cells [5]; SH-4, 48 h): 48.9% | Late apoptosis (Annexin V+/PI+, Q2) (SH-4 cells [5]; SH-4, 48 h): 6.1% | Live (viable cells, Annexin V−/PI−, Q4) (SH-4 cells [5]; SH-4, 48 h): 44.6% | Necrosis (Annexin V−/PI+, Q1) (SH-4 cells [5]; SH-4, 48 h): 0.46% | IC50 (human melanoma SH-4; Homo sapiens): 258 ± 16.1 µM | SI (Selective index) (human melanoma SH-4): 2.11 | melting point: 129 to 132 °C
